# Data: US20240269139A1, “COMPOUNDS FOR TARGETED PROTEIN DEGRADATION OF KINASES” (DANA-FARBER CANCER INSTITUTE, INC., priority 2020, published 2024)
# Where two headings read alike, the source gives them in different places.
# What was measured:
# [1] = target: protein kinases (human kinome) (Homo sapiens, UniProt P53667); assay type: cell-based; settings: LIMK1 (P53667-1)
# [2] = target: T1, protein kinases (human kinome) (Homo sapiens, UniProt Q4G0N4); assay type: cell-based; settings: Accession Q4GON4, direction down
# T1 sequence (Q4G0N4 63-442): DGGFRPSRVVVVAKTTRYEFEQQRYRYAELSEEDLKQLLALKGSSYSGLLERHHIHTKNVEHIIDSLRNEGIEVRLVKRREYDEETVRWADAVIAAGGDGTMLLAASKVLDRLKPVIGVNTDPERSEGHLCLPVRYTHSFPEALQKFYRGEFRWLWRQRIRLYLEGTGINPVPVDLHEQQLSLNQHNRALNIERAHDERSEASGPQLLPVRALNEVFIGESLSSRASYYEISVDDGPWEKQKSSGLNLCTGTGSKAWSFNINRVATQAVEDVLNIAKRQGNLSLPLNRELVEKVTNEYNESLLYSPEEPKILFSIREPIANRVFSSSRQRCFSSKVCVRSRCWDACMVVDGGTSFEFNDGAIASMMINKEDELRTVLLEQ
# [3] = direction down, experiment wp137
# [4] = direction down, experiment wp168
# Sequence of protein kinases (human kinome) (Homo sapiens, UniProt P53667) (P53667 whole entry): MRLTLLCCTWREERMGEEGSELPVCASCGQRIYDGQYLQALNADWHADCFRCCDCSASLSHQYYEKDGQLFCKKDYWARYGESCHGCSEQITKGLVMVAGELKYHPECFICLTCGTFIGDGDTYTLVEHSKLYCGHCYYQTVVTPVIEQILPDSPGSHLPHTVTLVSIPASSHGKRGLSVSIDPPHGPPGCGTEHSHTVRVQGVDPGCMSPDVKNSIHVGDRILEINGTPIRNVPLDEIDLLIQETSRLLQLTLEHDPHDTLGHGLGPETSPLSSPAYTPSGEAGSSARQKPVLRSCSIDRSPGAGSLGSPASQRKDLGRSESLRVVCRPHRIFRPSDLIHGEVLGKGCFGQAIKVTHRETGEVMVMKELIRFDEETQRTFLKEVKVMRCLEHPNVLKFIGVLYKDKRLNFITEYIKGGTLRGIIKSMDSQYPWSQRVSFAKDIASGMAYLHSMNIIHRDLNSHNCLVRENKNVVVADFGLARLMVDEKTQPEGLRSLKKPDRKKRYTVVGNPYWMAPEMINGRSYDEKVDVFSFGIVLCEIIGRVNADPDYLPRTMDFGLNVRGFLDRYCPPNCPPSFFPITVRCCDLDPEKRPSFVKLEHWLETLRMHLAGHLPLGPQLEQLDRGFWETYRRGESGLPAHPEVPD
smiles,measurement,setting,value
CC(C)S(=O)(=O)c1ccccc1Nc1nc(Nc2ccc(N3CCN(CCOCCOCCC(=O)NCCNc4cccc5c4CN(C4CCC(=O)NC4=O)C5=O)CC3)cc2)ncc1Cl (stereo not drawn) [TL13.97],logFC LIMK1,[1]; [3],−1.173
same,logFC LIMK1,"[1]; experiment wp137, down",−1.173
CN(C)C(=O)c1cc2cnc(Nc3ccc(N4CCN(CCCCNC(=O)COc5cccc6c5C(=O)N(C5CCC(=O)NC5=O)C6=O)CC4)cn3)nc2n1C1CCCC1 (stereo not drawn) [BSJ.04.132],logFC NADK2,[2]; experiment wp084,−0.5591
O=C(COc1cccc2c1C(=O)N(C1CCC(=O)NC1=O)C2=O)NCCCCCCCC(=O)NC1(c2ccc(-c3nc4ccn5c(=O)[nH]nc5c4cc3-c3ccccc3)cc2)CCC1 (stereo not drawn) [INY.01.140.1],logFC NADK2,[2]; experiment wp081,−0.3886
C=CCn1c(=O)c2cnc(Nc3ccc(N4CCN(CCCNc5cccc6c5C(=O)N(C5CCC(=O)NC5=O)C6=O)CC4)cc3)nc2n1-c1cccc(C(C)(C)O)n1 (stereo not drawn) [ZNL.02.096],logFC NADK2,[2]; experiment wp118,−0.4004
Nc1ncnc2c1c(-c1ccc(Oc3ccccc3)cc1)nn2[C@H]1CC[C@H](N2CCN(CCOCCNC(=O)CNc3cccc4c3C(=O)N(C3CCC(=O)NC3=O)C4=O)CC2)CC1 (stereo partly drawn) [SB1.G.181],logFC LIMK1,"[1]; direction down, experiment wp071",−0.686
same,logFC LIMK1,"[1]; experiment wp071, down",−0.686
Cc1ccc(NC(=O)c2cccc(C(F)(F)F)c2)cc1N1Cc2cnc(Nc3ccc(N4CCN(CCCOc5cccc6c5C(=O)N(C5CCC(=O)NC5=O)C6=O)CC4)nc3)nc2N(C)C1=O (stereo not drawn) [DB0662],logFC LIMK1,[1]; [4],−1.911
same,logFC LIMK1,"[1]; experiment wp168, down",−1.911
CC(C)S(=O)(=O)c1ccccc1Nc1nc(Nc2ccc(N3CCN(CCOCCOCCNC(=O)CNc4cccc5c4C(=O)N(C4CCC(=O)NC4=O)C5=O)CC3)cc2)ncc1Cl (stereo not drawn) [TL12.186],logFC LIMK1,"[1]; direction down, experiment wp131",−1.055
same,logFC LIMK1,[1]; [3],−0.8734
same,logFC LIMK1,"[1]; experiment wp131, down",−1.055
same,logFC LIMK1,"[1]; experiment wp137, down",−0.8734
CC(C)(C)c1nc(-c2cccc(NS(=O)(=O)c3c(F)cccc3F)c2F)c(-c2ccnc(NCCOCCNC(=O)CCOCCOCCNc3cccc4c3C(=O)N(C3CCC(=O)NC3=O)C4=O)n2)s1 (stereo not drawn) [DD.03.106],logFC NADK2,"[2]; experiment wp147, 4 uM",−0.6976
same,logFC LIMK1,"[1]; direction down, experiment wp047",−1.637
same,logFC LIMK1,[1]; [3],−1.981
same,logFC LIMK1,"[1]; direction down, experiment wp147, 1 uM",−2.959
same,logFC LIMK1,"[1]; direction down, experiment wp147, 2 uM",−2.2
same,logFC LIMK1,"[1]; direction down, experiment wp147, 4 uM",−0.637
same,logFC LIMK1,"[1]; experiment wp047, down",−1.637
same,logFC LIMK1,"[1]; experiment wp137, down",−1.981
same,logFC LIMK1,"[1]; experiment wp147, 1 uM, down",−2.959
same,logFC LIMK1,"[1]; experiment wp147, 2 uM, down",−2.2
same,logFC LIMK1,"[1]; experiment wp147, 4 uM, down",−0.637
CC(=O)c1c(C)c2cnc(Nc3ccc(N4CCN(CCOCCOCCOCCNC(=O)COc5cccc6c5C(=O)N(C5CCC(=O)NC5=O)C6=O)CC4)cn3)nc2n(C2CCCC2)c1=O (stereo not drawn) [BSJ.03.123],logFC NADK2,[2]; experiment wp084,−0.4839
Cc1ccc(NC(=O)c2cccc(C(F)(F)F)c2)cc1N1Cc2cnc(Nc3ccc(N4CCN(CCCCC(=O)N[C@H](C(=O)N5C[C@H](O)C[C@H]5C(=O)N[C@@H](C)c5ccc(-c6scnc6C)cc5)C(C)(C)C)CC4)nc3)nc2N(C)C1=O [DB1113],logFC LIMK1,[1]; [4],−1.144
same,logFC LIMK1,"[1]; experiment wp168, down",−1.144
